According to the kinase profiling compilation of Christmann-Franck et al. (2016):

Experiments:
Assay in all cases: KINOMEscan competition binding
Conditions in all cases: compound 10.0 µM
[1] = target: AURKC (human) (UniProt Q9UQB9)
[2] = target: CAMKK2 (human) (UniProt Q96RR4)
[3] = target: CDC2L2 (human) (UniProt Q9UQ88)
[4] = target: CDK16 (human) (UniProt Q00536)
[5] = target: CDK7 (human) (UniProt P50613)
[6] = target: CLK2 (human) (UniProt P49760)
[7] = target: CSNK1G2 (human) (UniProt P78368)
[8] = target: CaMK1 (human) (UniProt Q14012)
[9] = target: DYRK1B (human) (UniProt Q9Y463)
[10] = target: EPHA6 (human) (UniProt Q9UF33)
[11] = target: EPHA8 (human) (UniProt P29322)
[12] = target: FER (human) (UniProt P16591)
[13] = target: FLT1 (human) (UniProt P17948)
[14] = target: HCK (human) (UniProt P08631)
[15] = target: ITK (human) (UniProt Q08881)
[16] = target: JAK1 JH1 catalytic (human) (UniProt P23458)
[17] = target: KDR (human) (UniProt P35968)
[18] = target: LCK (human) (UniProt P06239)
[19] = target: MAPK3 (human) (UniProt P27361)
[20] = target: MAPK7 (human) (UniProt Q13164)
[21] = target: MAPK8 (human) (UniProt P45983)
[22] = target: MYO3B (human) (UniProt Q8WXR4)
[23] = target: PAK1 (human) (UniProt Q13153)
[24] = target: PIK3C2B (human) (UniProt O00750)
[25] = target: PIK3CA (human) (UniProt P42336)
[26] = target: PIK3CB (human) (UniProt P42338)
[27] = target: PIM2 (human) (UniProt Q9P1W9)
[28] = target: PLK3 (human) (UniProt Q9H4B4)
[29] = target: PRKACB (human) (UniProt P22694)
[30] = target: PRKD1 (human) (UniProt Q15139)
[31] = target: PRKD3 (human) (UniProt O94806)
[32] = target: PTK2B (human) (UniProt Q14289)
[33] = target: RPS6KA6 KD2 (human) (UniProt Q9UK32)
[34] = target: SRPK1 (human) (UniProt Q96SB4)
[35] = target: SRPK2 (human) (UniProt P78362)
[36] = target: STK3 (human) (UniProt Q13188)
[37] = target: STK32B (human) (UniProt Q9NY57)
[38] = target: TIE1 (human) (UniProt P35590)
[39] = target: TLK1 (human) (UniProt Q9UKI8)
[40] = target: TNK2 (human) (UniProt Q07912)
[41] = target: TNNI3K (human) (UniProt Q59H18)
[42] = target: TYRO3 (human) (UniProt Q06418)
[43] = target: YES1 (human) (UniProt P07947)

TIE1 (human), sequence (P35590 whole entry, looked up): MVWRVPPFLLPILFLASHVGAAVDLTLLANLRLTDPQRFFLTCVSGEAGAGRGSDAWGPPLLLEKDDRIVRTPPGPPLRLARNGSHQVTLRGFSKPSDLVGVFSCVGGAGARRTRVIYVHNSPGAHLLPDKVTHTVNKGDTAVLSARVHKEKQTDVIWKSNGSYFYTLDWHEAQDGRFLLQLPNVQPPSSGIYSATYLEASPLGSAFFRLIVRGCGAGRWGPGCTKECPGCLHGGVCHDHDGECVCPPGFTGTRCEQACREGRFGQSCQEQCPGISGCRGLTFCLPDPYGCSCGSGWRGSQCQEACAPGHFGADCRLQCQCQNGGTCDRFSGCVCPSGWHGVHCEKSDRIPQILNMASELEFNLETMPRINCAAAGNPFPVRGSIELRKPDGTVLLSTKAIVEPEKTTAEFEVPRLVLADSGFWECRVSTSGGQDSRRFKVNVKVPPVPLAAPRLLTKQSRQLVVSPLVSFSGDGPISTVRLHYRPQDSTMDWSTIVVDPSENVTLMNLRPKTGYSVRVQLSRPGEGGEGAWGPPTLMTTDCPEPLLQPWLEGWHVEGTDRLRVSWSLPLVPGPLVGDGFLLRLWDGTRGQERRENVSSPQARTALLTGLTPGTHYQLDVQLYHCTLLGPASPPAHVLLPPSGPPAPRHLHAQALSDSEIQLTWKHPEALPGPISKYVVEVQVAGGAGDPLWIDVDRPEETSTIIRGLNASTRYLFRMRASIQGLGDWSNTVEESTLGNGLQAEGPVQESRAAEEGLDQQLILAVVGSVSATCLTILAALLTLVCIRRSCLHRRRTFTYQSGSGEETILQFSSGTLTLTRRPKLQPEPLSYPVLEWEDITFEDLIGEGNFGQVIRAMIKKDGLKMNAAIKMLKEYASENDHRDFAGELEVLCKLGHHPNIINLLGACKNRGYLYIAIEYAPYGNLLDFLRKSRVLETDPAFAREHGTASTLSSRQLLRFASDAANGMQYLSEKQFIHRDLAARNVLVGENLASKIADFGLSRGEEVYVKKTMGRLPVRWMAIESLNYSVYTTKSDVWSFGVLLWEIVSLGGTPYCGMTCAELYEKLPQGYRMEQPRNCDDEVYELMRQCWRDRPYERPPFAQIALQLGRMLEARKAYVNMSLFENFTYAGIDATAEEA
PAK1 (human), sequence (Q13153 whole entry, looked up): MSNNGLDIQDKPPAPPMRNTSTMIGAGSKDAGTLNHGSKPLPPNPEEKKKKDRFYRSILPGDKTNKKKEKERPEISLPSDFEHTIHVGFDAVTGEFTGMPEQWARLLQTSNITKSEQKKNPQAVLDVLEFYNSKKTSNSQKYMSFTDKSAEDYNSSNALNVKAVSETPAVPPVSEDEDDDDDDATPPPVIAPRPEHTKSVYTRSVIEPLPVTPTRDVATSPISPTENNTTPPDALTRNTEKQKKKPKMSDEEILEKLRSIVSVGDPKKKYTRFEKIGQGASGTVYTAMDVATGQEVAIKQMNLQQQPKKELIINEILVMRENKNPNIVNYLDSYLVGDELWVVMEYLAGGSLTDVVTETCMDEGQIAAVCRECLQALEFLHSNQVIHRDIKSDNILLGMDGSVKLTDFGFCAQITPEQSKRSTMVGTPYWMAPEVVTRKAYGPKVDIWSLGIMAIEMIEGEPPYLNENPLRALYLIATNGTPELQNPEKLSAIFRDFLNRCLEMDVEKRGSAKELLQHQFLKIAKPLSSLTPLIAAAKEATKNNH
PRKD1 (human), sequence (Q15139 whole entry, looked up): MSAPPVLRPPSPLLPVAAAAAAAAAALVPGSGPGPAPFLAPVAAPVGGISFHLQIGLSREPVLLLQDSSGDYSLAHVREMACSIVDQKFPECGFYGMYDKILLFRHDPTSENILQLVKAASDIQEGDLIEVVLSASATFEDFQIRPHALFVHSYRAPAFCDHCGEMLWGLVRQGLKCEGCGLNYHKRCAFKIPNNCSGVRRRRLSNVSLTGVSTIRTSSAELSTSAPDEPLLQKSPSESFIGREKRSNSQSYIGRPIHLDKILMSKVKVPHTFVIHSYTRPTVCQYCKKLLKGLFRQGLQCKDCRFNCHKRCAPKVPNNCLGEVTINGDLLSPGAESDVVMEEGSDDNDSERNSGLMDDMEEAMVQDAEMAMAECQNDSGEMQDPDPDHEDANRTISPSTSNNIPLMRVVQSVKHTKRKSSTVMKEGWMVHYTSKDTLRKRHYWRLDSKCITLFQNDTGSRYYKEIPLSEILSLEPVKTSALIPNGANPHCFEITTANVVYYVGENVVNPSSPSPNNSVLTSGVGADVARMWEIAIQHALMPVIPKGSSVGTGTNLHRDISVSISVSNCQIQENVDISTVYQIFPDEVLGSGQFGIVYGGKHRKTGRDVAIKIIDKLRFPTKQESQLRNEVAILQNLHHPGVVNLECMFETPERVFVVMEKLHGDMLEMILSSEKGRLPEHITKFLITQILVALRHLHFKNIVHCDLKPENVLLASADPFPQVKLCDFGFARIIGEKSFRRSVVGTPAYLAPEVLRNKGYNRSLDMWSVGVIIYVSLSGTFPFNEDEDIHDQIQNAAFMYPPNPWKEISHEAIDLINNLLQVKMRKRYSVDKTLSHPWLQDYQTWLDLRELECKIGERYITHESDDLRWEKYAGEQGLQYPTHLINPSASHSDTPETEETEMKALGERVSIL
ITK (human), sequence (Q08881 whole entry, looked up): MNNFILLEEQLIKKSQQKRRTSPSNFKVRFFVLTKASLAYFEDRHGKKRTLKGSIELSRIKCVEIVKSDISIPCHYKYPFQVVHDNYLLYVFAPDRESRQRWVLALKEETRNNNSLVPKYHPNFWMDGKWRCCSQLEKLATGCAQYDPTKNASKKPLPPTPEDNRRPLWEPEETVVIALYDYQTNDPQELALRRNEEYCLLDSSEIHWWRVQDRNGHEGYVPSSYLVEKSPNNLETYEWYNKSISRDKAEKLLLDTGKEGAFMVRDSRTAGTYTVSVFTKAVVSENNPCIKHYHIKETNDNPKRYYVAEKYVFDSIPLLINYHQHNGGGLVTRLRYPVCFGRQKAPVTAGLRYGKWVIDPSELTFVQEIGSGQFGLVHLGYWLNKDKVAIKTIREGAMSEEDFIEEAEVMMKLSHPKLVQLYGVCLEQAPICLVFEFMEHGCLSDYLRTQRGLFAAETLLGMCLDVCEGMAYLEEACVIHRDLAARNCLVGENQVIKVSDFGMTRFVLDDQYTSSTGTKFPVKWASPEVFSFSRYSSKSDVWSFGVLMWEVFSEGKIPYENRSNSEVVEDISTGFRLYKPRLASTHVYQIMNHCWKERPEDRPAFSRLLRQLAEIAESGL
DYRK1B (human), sequence (Q9Y463 whole entry, looked up): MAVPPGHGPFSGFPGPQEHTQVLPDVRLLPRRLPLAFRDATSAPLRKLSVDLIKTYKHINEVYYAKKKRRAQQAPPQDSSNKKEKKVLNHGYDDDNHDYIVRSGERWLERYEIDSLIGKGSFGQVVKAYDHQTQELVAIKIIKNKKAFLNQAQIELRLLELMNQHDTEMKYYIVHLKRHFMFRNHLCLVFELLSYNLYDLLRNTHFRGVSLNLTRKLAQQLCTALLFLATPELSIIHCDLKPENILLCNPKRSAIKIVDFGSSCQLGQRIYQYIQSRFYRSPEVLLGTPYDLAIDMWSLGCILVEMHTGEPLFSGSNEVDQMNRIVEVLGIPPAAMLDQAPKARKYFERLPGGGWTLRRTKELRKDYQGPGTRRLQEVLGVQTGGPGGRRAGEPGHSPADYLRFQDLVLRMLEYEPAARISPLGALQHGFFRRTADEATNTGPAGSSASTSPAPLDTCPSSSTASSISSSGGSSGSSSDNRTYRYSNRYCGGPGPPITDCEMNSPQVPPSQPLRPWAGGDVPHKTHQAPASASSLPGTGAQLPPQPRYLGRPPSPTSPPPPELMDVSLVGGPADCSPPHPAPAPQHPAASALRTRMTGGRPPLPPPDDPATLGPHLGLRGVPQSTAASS
STK32B (human), sequence (Q9NY57 whole entry, looked up): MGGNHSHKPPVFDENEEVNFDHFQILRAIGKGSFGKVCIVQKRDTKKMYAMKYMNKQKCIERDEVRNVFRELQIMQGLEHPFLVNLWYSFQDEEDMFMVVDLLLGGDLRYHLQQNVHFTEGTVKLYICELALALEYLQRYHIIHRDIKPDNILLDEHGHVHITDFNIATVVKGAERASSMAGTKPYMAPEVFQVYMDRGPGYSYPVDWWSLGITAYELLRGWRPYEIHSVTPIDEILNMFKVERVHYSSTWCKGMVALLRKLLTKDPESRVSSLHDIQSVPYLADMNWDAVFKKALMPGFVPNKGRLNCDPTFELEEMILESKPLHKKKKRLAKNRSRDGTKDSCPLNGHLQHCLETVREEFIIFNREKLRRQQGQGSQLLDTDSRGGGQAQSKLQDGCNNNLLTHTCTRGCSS
CDC2L2 (human), sequence (Q9UQ88 whole entry, looked up): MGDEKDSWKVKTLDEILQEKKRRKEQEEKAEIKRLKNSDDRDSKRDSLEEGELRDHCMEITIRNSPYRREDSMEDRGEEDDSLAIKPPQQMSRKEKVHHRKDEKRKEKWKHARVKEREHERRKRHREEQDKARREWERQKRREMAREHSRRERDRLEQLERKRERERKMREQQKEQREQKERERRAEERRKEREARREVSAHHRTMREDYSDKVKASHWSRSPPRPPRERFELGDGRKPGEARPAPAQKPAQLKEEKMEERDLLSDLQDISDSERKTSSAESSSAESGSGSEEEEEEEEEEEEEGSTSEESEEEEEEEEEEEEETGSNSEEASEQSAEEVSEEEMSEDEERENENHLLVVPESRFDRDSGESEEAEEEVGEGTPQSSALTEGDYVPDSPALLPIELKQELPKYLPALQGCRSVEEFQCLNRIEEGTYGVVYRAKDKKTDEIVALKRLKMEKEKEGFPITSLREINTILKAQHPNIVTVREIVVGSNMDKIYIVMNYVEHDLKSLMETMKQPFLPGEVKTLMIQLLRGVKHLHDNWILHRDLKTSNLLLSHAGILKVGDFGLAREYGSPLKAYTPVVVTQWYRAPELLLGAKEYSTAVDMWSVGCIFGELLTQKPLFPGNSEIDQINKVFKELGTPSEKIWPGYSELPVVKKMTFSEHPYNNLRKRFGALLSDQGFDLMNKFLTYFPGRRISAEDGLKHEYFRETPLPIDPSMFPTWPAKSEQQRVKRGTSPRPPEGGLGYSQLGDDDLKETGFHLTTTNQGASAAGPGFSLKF

For `CCOc1cc(N2CCC(N3CCCCC3)CC2)ccc1Nc1nc(Nc2ccccc2S(=O)(=O)C(C)C)c2cn[nH]c2n1`, the kinase still bound, per cent of control [1] was 100%, the kinase still bound, per cent of control [2] was 46% and the kinase still bound, per cent of control [3] was 100%. The kinase still bound, per cent of control [4] was 98%, the kinase still bound, per cent of control [5] was 42% and the kinase still bound, per cent of control [6] was 2.2%. For the same compound, the kinase still bound, per cent of control [7] was 46%, the kinase still bound, per cent of control [8] was 4.6% and the kinase still bound, per cent of control [9] was 42%. The kinase still bound, per cent of control [10] was 100%, the kinase still bound, per cent of control [11] was 100% and the kinase still bound, per cent of control [12] was 9.1%. For the same compound, the kinase still bound, per cent of control [13] was 100%, the kinase still bound, per cent of control [14] was 100% and the kinase still bound, per cent of control [15] was 40%. For the same compound, the kinase still bound, per cent of control [16] was 100%, the kinase still bound, per cent of control [17] was 100% and the kinase still bound, per cent of control [18] was 84%. It also gave a kinase still bound, per cent of control [19] of 0.75%, a kinase still bound, per cent of control [20] of 0.9% and a kinase still bound, per cent of control [21] of 4.3%. It also gave a kinase still bound, per cent of control [22] of 18%, a kinase still bound, per cent of control [23] of 90% and a kinase still bound, per cent of control [24] of 100%. The kinase still bound, per cent of control [25] was 99%, the kinase still bound, per cent of control [26] was 17% and the kinase still bound, per cent of control [27] was 100%. The kinase still bound, per cent of control [28] was 98%, the kinase still bound, per cent of control [29] was 100% and the kinase still bound, per cent of control [30] was 73%. It also gave a kinase still bound, per cent of control [31] of 36%, a kinase still bound, per cent of control [32] of 5% and a kinase still bound, per cent of control [33] of 2.1%. It also gave a kinase still bound, per cent of control [34] of 100%, a kinase still bound, per cent of control [35] of 100% and a kinase still bound, per cent of control [36] of 100%. It also gave a kinase still bound, per cent of control [37] of 64%, a kinase still bound, per cent of control [38] of 76% and a kinase still bound, per cent of control [39] of 75%. For the same compound, the kinase still bound, per cent of control [40] was 3.4%, the kinase still bound, per cent of control [41] was 100% and the kinase still bound, per cent of control [42] was 100%. For the same compound, the kinase still bound, per cent of control [43] was 84%.
